Measurements from patent US12233161B1, “Lipids and lipid nanoparticle formulations” (LONGUIDE BIOPHARMA CORPORATION, priority 2024, dated 2025).

System: mice
Assay: In vivo delivery of FLuc-mRNA lipid nanoparticles in mice, in vivo imaging (IVIS)
Conditions: for IVIS / % of organ targeting: Fluc-mRNA LNP, formulation, molar ratio and N/P as in the table; for organ targeting specificity (spleen or lung), in words: Table 3, Fluc-mRNA, various formulations
Protocol: After the preparation was completed, the preparation was injected intramuscularly (mice rectus femoris muscle of the thigh), intravenously (mice tail vein), or intraperitoneal injection or subcutaneous injection (subcutaneous on the back), with approximately 75 μL per mouse, for a total of 3 mice. After a certain time of injection, in vivo imaging (PerkinElmer, IVIS Lumina III) was performed. 10-15 minutes before imaging, 200 μL of 15 mg/mL D-Luciferin working solution was injected intraperitoneally, and the imaging analysis was performed using an in vivo imager.

Structure (SMILES) | IVIS (route IM, organ not given) | IVIS (route IV, organ not given) | IVIS (route IV, organ: body) | % of organ targeting (route IV, organ: liver) | IVIS (route IV, organ: liver) | % of organ targeting (route IV, organ: lung) | IVIS (route IV, organ: lung) | % of organ targeting (route IV, organ: spleen) | IVIS (route IV, organ: spleen) | % of organ targeting (route IM, organ: liver) | IVIS (route IM, organ: liver) | % of organ targeting (route IM, organ: lung) | IVIS (route IM, organ: lung) | IVIS (route IM, organ: muscle) | % of organ targeting (route IM, organ: spleen) | IVIS (route IM, organ: spleen) | organ targeting specificity (spleen or lung), in words
CCCCCCCCC(CCCCCC)C(=O)OCCCCCCNC(=O)C(O)CN(CCCN(CC(O)C(=O)NCCCCCCOC(=O)C(CCCCCC)CCCCCCCC)CC(O)C(=O)NCCCCCCOC(=O)C(CCCCCC)CCCCCCCC)CCCN(CC(O)C(=O)NCCCCCCOC(=O)C(CCCCCC)CCCCCCCC)CC(O)C(=O)NCCCCCCOC(=O)C(CCCCCC)CCCCCCCC (stereo not shown) [Compound L0372] | 7.60E+06 | 4.83E+08 | – | – | – | – | – | – | – | – | – | – | – | – | – | – | –
CCCCCCCCC(CCCCCC)C(=O)NCCOC(=O)C(O)CN(CCCN(C)CCCN(CC(O)C(=O)OCCNC(=O)C(CCCCCC)CCCCCCCC)CC(O)C(=O)OCCNC(=O)C(CCCCCC)CCCCCCCC)CC(O)C(=O)OCCNC(=O)C(CCCCCC)CCCCCCCC (stereo not shown) [Compound L0373] | 8.38E+06 | – | 7.79E+07 | 11.58% | 9.41E+06 | 13.53% | 1.10E+07 | 74.89% | 6.08E+07 | – | – | – | – | – | – | – | –
CCCCCCCCC(CCCCCC)C(=O)NCCOC(=O)C(O)CN(CCN(C)CCN(CC(O)C(=O)OCCNC(=O)C(CCCCCC)CCCCCCCC)CC(O)C(=O)OCCNC(=O)C(CCCCCC)CCCCCCCC)CC(O)C(=O)OCCNC(=O)C(CCCCCC)CCCCCCCC (stereo not shown) [Compound L0374] | 6.46E+07 | – | – | – | – | – | – | – | – | – | – | – | – | – | – | – | –
CCCCCCCCC(CCCCCC)C(=O)NCCOC(=O)C(O)CN(CCCN(CC(O)C(=O)OCCNC(=O)C(CCCCCC)CCCCCCCC)CC(O)C(=O)OCCNC(=O)C(CCCCCC)CCCCCCCC)CCCN(CC(O)C(=O)OCCNC(=O)C(CCCCCC)CCCCCCCC)CC(O)C(=O)OCCNC(=O)C(CCCCCC)CCCCCCCC (stereo not shown) [Compound L0375] | 1.41E+05 | 3.72E+05 | – | – | – | – | – | – | – | – | – | – | – | – | – | – | –
CCCCCCCCC(CCCCCC)C(=O)OCCCCNC(=O)C(O)CN(CCCN(C)CCCN(CC(O)C(=O)NCCCCOC(=O)C(CCCCCC)CCCCCCCC)CC(O)C(=O)NCCCCOC(=O)C(CCCCCC)CCCCCCCC)CC(O)C(=O)NCCCCOC(=O)C(CCCCCC)CCCCCCCC (stereo not shown) [Compound L0376] | – | – | 5.58E+07 | 14.62% | 1.64E+07 | 20.78% | 2.32E+07 | 64.60% | 7.23E+07 | 30.06% | 2.21E+05 | 5.80% | 4.27E+04 | 2.06E+07 | 64.14% | 4.72E+05 | strong targeting specificity to deliver to spleen
CCCCCCCCC(CCCCCC)C(=O)OCCCCNC(=O)C(O)CCN(CCCN(C)CCN(CC(O)C(=O)NCCCCOC(=O)C(CCCCCC)CCCCCCCC)CC(O)C(=O)NCCCCOC(=O)C(CCCCCC)CCCCCCCC)C(O)C(=O)NCCCCOC(=O)C(CCCCCC)CCCCCCCC (stereo not shown) [Compound L0377] | – | – | 1.81E+08 | 38.23% | 6.08E+07 | 4.20% | 6.67E+06 | 57.57% | 9.15E+07 | 35.08% | 1.59E+05 | 6.58% | 2.98E+04 | 3.71E+07 | 58.34% | 2.64E+05 | strong targeting specificity to deliver to spleen
CCCCCCCCC(CCCCCC)C(=O)OCCCCNC(=O)C(O)CN(CCCN(CC(O)C(=O)NCCCCOC(=O)C(CCCCCC)CCCCCCCC)CC(O)C(=O)NCCCCOC(=O)C(CCCCCC)CCCCCCCC)CCCN(CC(O)C(=O)NCCCCOC(=O)C(CCCCCC)CCCCCCCC)CC(O)C(=O)NCCCCOC(=O)C(CCCCCC)CCCCCCCC (stereo not shown) [Compound L0378] | – | – | 2.77E+08 | 45.43% | 5.93E+07 | 0.60% | 7.82E+05 | 53.97% | 7.04E+07 | 37.15% | 1.82E+05 | 12.65% | 6.19E+04 | 3.09E+07 | 50.19% | 2.45E+05 | strong targeting specificity to deliver to spleen
CCCCCCC(CCCCCC)C(=O)NCCNC(=O)C(O)CN(CCCN(C)CCCN(CC(O)C(=O)NCCNC(=O)C(CCCCCC)CCCCCC)CC(O)C(=O)NCCNC(=O)C(CCCCCC)CCCCCC)CC(O)C(=O)NCCNC(=O)C(CCCCCC)CCCCCC (stereo not shown) [Compound L0379] | – | 1.63E+09 | – | – | – | – | – | – | – | 35.55% | 1.37E+06 | 3.16% | 1.22E+05 | 2.68E+08 | 61.28% | 2.37E+06 | strong targeting specificity to deliver to spleen
CCCCCCC(CCCCCC)C(=O)NCCNC(=O)C(O)CN(CCN(C)CCN(CC(O)C(=O)NCCNC(=O)C(CCCCCC)CCCCCC)CC(O)C(=O)NCCNC(=O)C(CCCCCC)CCCCCC)CC(O)C(=O)NCCNC(=O)C(CCCCCC)CCCCCC (stereo not shown) [Compound L0380] | – | – | 7.98E+09 | 96.36% | 2.14E+09 | 0.40% | 8.80E+06 | 3.24% | 7.18E+07 | 61.06% | 3.14E+07 | 1.54% | 7.90E+05 | 4.58E+08 | 37.40% | 1.92E+07 | –
CCCCCCC(CCCCCC)C(=O)NCCNC(=O)C(O)CN(CCCN(CC(O)C(=O)NCCNC(=O)C(CCCCCC)CCCCCC)CC(O)C(=O)NCCNC(=O)C(CCCCCC)CCCCCC)CCCN(CC(O)C(=O)NCCNC(=O)C(CCCCCC)CCCCCC)CC(O)C(=O)NCCNC(=O)C(CCCCCC)CCCCCC (stereo not shown) [Compound L0381] | 1.90E+07 | – | 1.57E+08 | 86.51% | 8.07E+07 | 0.46% | 4.31E+05 | 13.03% | 1.22E+07 | – | – | – | – | – | – | – | –
CCCCCCCC(CCCCCCC)OC(=O)CCCNC(=O)C(O)CN(CCCN(C)CCCN(CC(O)C(=O)NCCCC(=O)OC(CCCCCCC)CCCCCCC)CC(O)C(=O)NCCCC(=O)OC(CCCCCCC)CCCCCCC)CC(O)C(=O)NCCCC(=O)OC(CCCCCCC)CCCCCCC (stereo not shown) [Compound L0382] | – | – | 1.60E+09 | 67.69% | 3.25E+08 | 9.82% | 4.72E+07 | 22.49% | 1.08E+08 | 35.27% | 5.75E+04 | 7.39% | 1.20E+04 | 4.83E+07 | 57.34% | 9.34E+04 | –
CCCCCCCC(CCCCCCC)OC(=O)CCCNC(=O)C(O)CN(CCN(C)CCN(CC(O)C(=O)NCCCC(=O)OC(CCCCCCC)CCCCCCC)CC(O)C(=O)NCCCC(=O)OC(CCCCCCC)CCCCCCC)CC(O)C(=O)NCCCC(=O)OC(CCCCCCC)CCCCCCC (stereo not shown) [Compound L0383] | – | – | 2.00E+09 | 68.14% | 4.62E+08 | 2.23% | 1.52E+07 | 29.63% | 2.01E+08 | 29.05% | 1.91E+05 | 10.07% | 6.63E+04 | 1.78E+08 | 60.88% | 4.01E+05 | strong targeting specificity to deliver to spleen
CCCCCCCC(CCCCCCC)OC(=O)CCCNC(=O)C(O)CN(CCCN(CC(O)C(=O)NCCCC(=O)OC(CCCCCCC)CCCCCCC)CC(O)C(=O)NCCCC(=O)OC(CCCCCCC)CCCCCCC)CCCN(CC(O)C(=O)NCCCC(=O)OC(CCCCCCC)CCCCCCC)CC(O)C(=O)NCCCC(=O)OC(CCCCCCC)CCCCCCC (stereo not shown) [Compound L0384] | – | – | 4.54E+08 | 54.57% | 1.50E+08 | 0.39% | 1.09E+06 | 45.03% | 1.24E+08 | 29.97% | 2.35E+05 | 13.02% | 1.02E+05 | 2.75E+07 | 57.01% | 4.47E+05 | strong targeting specificity to deliver to spleen
CCCCCCCCCCOC(=O)CCCNC(=O)C(O)CN(CCCN(C)CCCN(CC(O)C(=O)NCCCC(=O)OCCCCCCCCCC)CC(O)C(=O)NCCCC(=O)OCCCCCCCCCC)CC(O)C(=O)NCCCC(=O)OCCCCCCCCCC (stereo not shown) [Compound L0385] | 1.14E+06 | – | 8.17E+07 | 0.90% | 2.51E+06 | 98.40% | 2.74E+08 | 0.70% | 1.94E+06 | – | – | – | – | – | – | – | more selective towards the lung
